{"source": "paper doi:10.1101/2024.12.25.630315", "about": "(bioRxiv, 2024)", "key": {"[1]": {"biological_target": "T1, Nectin-4 (Homo sapiens, UniProt Q96NY8)", "T1 construct": "host or cells: HT1376, SCaBER, T24, RT112, UC9, UC14 urothelial carcinoma cells; HT1376 xenografts in NSG mice", "T1 sequence (Q96NY8 32-510)": "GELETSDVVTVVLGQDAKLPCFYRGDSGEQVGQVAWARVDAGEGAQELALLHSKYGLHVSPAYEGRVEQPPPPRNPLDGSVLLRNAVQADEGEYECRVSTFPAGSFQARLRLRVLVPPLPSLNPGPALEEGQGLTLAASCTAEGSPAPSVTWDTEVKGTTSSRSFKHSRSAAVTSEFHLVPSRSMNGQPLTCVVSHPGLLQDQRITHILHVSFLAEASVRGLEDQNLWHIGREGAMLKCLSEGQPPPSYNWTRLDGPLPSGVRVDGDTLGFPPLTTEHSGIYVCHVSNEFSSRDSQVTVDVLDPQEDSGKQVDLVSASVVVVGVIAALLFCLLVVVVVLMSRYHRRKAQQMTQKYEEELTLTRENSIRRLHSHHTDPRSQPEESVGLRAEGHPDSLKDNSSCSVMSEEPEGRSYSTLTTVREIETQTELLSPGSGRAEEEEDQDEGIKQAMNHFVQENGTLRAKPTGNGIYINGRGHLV", "test": "In vivo blocking of [^68Ga]AJ647 uptake by non-radioactive AJ647, HT1376 xenografts", "set-up": "species or system mouse", "settings": "1 mg/kg non-radioactive AJ647; PET", "experimental": "Dynamic PET-MR imaging was performed for up to 90 minutes post-injection. […] By 60 minutes, the tumor contrast had further improved due to background radiotracer clearance, as evidenced by the percent injected activity per cubic centimeter (%IA/cc) values derived from [^68Ga]AJ647 PET (Fig. 4B). […] In contrast, minimal uptake was detected in non–Nectin-4-expressing tissues such as muscle.\nMice with tumor volume of ~100–150 mm^3 were injected with ~[…] (7.4 MBq) of [^68Ga]AJ647 in […] of 5% ethanol in saline intravenously and anesthetized under 2.5% isoflurane. PET-CT images were acquired at 60 minutes after radiotracer injection at 5 min/bed in an ARGUS small-animal PET/CT scanner (Sedecal, Madrid, Spain) as described (n=3 unless otherwise noted). PET-MR images were acquired on a simultaneous 7T Bruker PET-MR scanner. Dynamic imaging was conducted to evaluate pharmacokinetics of [^68Ga]AJ647. […] The SUV values were calculated by finding percent of injected activity (%IA) based on a calibration factor obtained from a known radioactive quantity, then normalizing by mice weight. […] For change in accessible Nectin-4 levels following EV treatment, ΔSUV was calculated by subtracting baseline (pre-treatment) uptake from post-therapy uptake of [^68Ga]AJ647. Target engagement was quantified by normalizing this change by initial SUV in same subject controls. […]"}, "[2]": {"biological_target": "T1, Nectin-4", "test": "In vitro blocking of [^68Ga]AJ647 uptake by non-radioactive AJ647", "format": "cell-based", "settings": "pre-incubation with 2 μM non-radioactive AJ647", "experimental": "Figure 3. In vitro specificity of [^68Ga]AJ647 for Nectin-4 in bladder cancer cell lines A) [^68Ga]AJ647 binding (percent incubated activity, %IA) to various bladder cancer cell lines. Cells were incubated with ~37 kBq (~1 μCi) [^68Ga]AJ647 at 4°C for 1 hour. […] B) Flow cytometry analysis of Nectin-4 receptor expression across different bladder cancer cell lines, providing insight into the variability in receptor density among the cell lines. […] Data in figure A and C are represented as mean ± SD. Pearson correlation used in C."}}, "data": [{"compound": "CSCC[C@@H]1NC(=O)[C@@H]2CSCCC(=O)N3CN(CN(C3)C(=O)CCSC[C@H](NC(=O)CCOCCOCCOCCOCCOCCOCCOCCOCCOCCOCCOCCOCCNC(=O)CN3CCN(CC(=O)O)CCN(CC(=O)O)CC3)C(=O)N3CCC[C@H]3C(=O)N[C@@H](Cc3cccc4ccccc34)C(=O)N[C@@H](CC(=O)O)C(=O)N2)C(=O)CCSC[C@@H](C(N)=O)NC(=O)[C@H](Cc2c[nH]c3ccccc23)NC(=O)[C@@H]2C[C@@H](O)CN2C(=O)[C@@H]2CCCN2C(=O)[C@H]([C@@H](C)O)NC(=O)[C@H](CO)NC(=O)[C@H](Cc2c[nH]c3ccccc23)NC(=O)[C@@H](CC(=O)O)NC(=O)[C@H](CCCCNC(=N)N)NC1=O", "note": "[AJ647]", "values": [{"measurement": "effect on [^68Ga]AJ647 tracer uptake in HT1376 xenografts", "setting": "[1]", "result": "reduction in tracer uptake"}, {"measurement": "effect of blocking dose on [^68Ga]AJ647 uptake in bladder cancer cell lines", "setting": "[2]", "result": "significantly reduced radiotracer uptake"}]}]}
